# Results reported in US10980828B2, “Method of using cyclodextrin” (L&F Research LLC, priority 2012, dated 2021).
# Key:
# [1] = intravenous infusions; cited from earlier work
# [2] = tested on: ABCA1; assay: ABCA1 mRNA expression in kidney cortex of BTBR ob/ob mice; type: in vivo; conditions: BTBR ob/ob mice, 4,000 mg/kg s.c. three times per week, 5 months
# Description: Quantitative Real Time PCR (QRT-PCR). Podocyte RNA was extracted using the RNAeasy Mini Kit (Qiagen). Reverse transcription was performed using the high-capacity cDNA reverse transcriptase kit (Applied Biosystems) according to the manufacturer's protocols. QRT-PCR was performed in the StepOnePlus real-time PCR system (Applied Biosystems) using the PerfeCTa® SYBR® Green FastMix (Quanta Biosciences). Relative gene expression was determined as 2^-ΔCt, with ΔCt being the difference between the cycle threshold (Ct) value of the target gene and Gapdh. For semi-quantitative expression analysis, PCR was performed and analyzed by gel electrophoresis. Amplification product intensities were determined using ImageJ software (NIH), values were normalized and expressed as fold changes in gene expression over GAPDH. The following primers were used: hABCA1-F, […]; hABCA1-R, […]; hLDL-R-F, […]; hLDL-R-R, […]; hHMG-CoA-R-F, […]; hHMG-CoA-R-R, […]; hGAPDH-F, […]; hGAPDH-R, Hs_ABCA1-SG QuantiTect-Primer-Assay (Qiagen); mAbca1-F, […]; mAbca1-R, […].
# BTBR ob/ob mice treatment and analysis. […] Urine was collected, and body weight and glycemia (OneTouch) were determined weekly. Six mice per group were analyzed. […] Blood samples were analyzed for CBC, lipid panel, AST, ALT, Alkaline Phosphatase, GGT, and BUN in the Comparative Laboratory Core Facility, University of Miami. […]
# [3] = tested on: human islets; assay: Human islet perifusion: glucose stimulated insulin release; type: cell-based; conditions: human islets from four preparations, pretreated with 0.5 mM CD for one hour, vs untreated
# Description: BTBR ob/ob mice treatment and analysis. BTBR ob/ob mice were purchased from Jackson Laboratories. Mice were injected subcutaneously with 4,000 mg/kg CD or saline as reported previously, three times per week for 5 months. Urine was collected, and body weight and glycemia (OneTouch) were determined weekly. Six mice per group were analyzed. All animal procedures were approved by the Institutional Animal Care and Use Committee (IACUC). After isotonic saline perfusion, the right kidney was removed for cholesterol content determination and mRNA extraction. One left kidney pole was embedded in OCT, a second pole fixed in 4% PFA and paraffin-embedded for histological analysis. Blood samples were analyzed for CBC, lipid panel, AST, ALT, Alkaline Phosphatase, GGT, and BUN in the Comparative Laboratory Core Facility, University of Miami. Serum creatinine was determined by tandem mass spectrometry at the UAB-UCSD O'Brien Core Center, University of Alabama at Birmingham, using the methods previously described. The urine albumin content was measured by ELISA (Bethyl Laboratories). Urinary creatinine was assessed by an assay based on the Jaffe method (Stanbio). Values are expressed as μg albumin/mg creatinine. Fasting plasma insulin was determined by ELISA (Mercodia, SW). […]
# [4] = tested on: BTBR ob/ob mice; assay: BTBR ob/ob mice treatment: body weight, glycemia, insulin, IPGTT, insulin sensitivity; type: in vivo
# Description: (§1) BTBR ob/ob mice treatment and analysis. BTBR ob/ob mice were purchased from Jackson Laboratories. Mice were injected subcutaneously with 4,000 mg/kg CD or saline as reported previously, three times per week for 5 months. Urine was collected, and body weight and glycemia (OneTouch) were determined weekly. Six mice per group were analyzed. All animal procedures were approved by the Institutional Animal Care and Use Committee (IACUC). After isotonic saline perfusion, the right kidney was removed for cholesterol content determination and mRNA extraction. One left kidney pole was embedded in OCT, a second pole fixed in 4% PFA and paraffin-embedded for histological analysis. Blood samples were analyzed for CBC, lipid panel, AST, ALT, Alkaline Phosphatase, GGT, and BUN in the Comparative Laboratory Core Facility, University of Miami. Serum creatinine was determined by tandem mass spectrometry at the UAB-UCSD O'Brien Core Center, University of Alabama at Birmingham, using the methods previously described. The urine albumin content was measured by ELISA (Bethyl Laboratories). Urinary creatinine was assessed by an assay based on the Jaffe method (Stanbio). Values are expressed as μg albumin/mg creatinine. Fasting plasma insulin was determined by ELISA (Mercodia, SW). Intraperitoneal glucose tolerance tests (IPGTT) were performed 4 months after treatment; after 5-hr fasting, blood glucose was recorded at baseline and up to 180 minutes after a glucose bolus (1.5 g/kg). For insulin sensitivity, glycemia was monitored at baseline and up to 150 minutes after intraperitoneal injection of 4 mU/g of short acting insulin. Human islets from four different isolations were pretreated with 0.5 mM CD for one hour and perfused as described before to determine insulin release in response to glucose and KCl.
# [5] = tested on: human podocytes; assay: Apoptosis analysis (Caspase-3 colorimetric assay) in podocytes exposed to patient sera; type: cell-based; conditions: DKD+ treated podocytes, 5 mM CD pretreatment 1 hour
# Description: Human podocyte culture. Human podocytes were cultured and differentiated as previously described and serum starved in 0.2% FBS prior to experiments. When patient sera were utilized, starved cells were exposed to 4% patient sera for 24 hours. For insulin treatment experiments, 100 nmol insulin was added to the culture medium for 15 minutes after exposure to patient sera. […] Apoptosis analysis. Apoptosis was assessed using the Caspase-3/CPP32 Colorimetric Assay kit (Biovision) according to the manufacturer's description. Caspase 3 activity was normalized to cell number and expressed as fold change to controls.
# [6] = tested on: ABCA1; assay: ABCA1 immunofluorescence staining in pancreata of BTBR mice; type: in vivo
# From the text: IPGTT performed one week prior to sacrifice were improved in CD treated homozygous mice when compared to homozygous controls. As improvement was observed despite a similar insulin sensitivity test, we analyzed the effect of low dose CD on the function of four different preparations of human islet cells. […] To determine whether the beneficial effect of CD on islet cell function was associated with the modulation of ABCA1 expression in pancreatic islets, we performed immunofluorescence staining using a rabbit polyclonal ABCA1 antibody (gift from Dr. A. Mendez) and determined ABCA1 expression as mean fluorescence intensity per pancreata analyzed. […] As hemolytic anemia and liver toxicity have been described while using other cyclodextrin derivatives in rodents and humans, and because we administered high dose CD for a period of 5 months, we studied hemoglobin, aspartate aminotransferase (AST), alanine transaminase (ALT) and gamma-glutamyltransferase (GGT) at sacrifice.
# [7] = tested on: BTBR ob/ob mice; assay: BTBR ob/ob mice treatment: diabetic kidney disease readouts; type: in vivo
# Description: as §1
# Histology, assessment of mesangial expansion and glomerular surface area. Periodic acid-Shiff's (PAS) staining of 4 μm thick tissue sections was performed. Twenty glomeruli per section were analyzed for mesangial expansion by semiquantitative analysis (scale 0-4) performed by two blinded independent investigators. The glomerular surface was delineated in each encountered glomerulus and the mean surface area calculated as described.
# [8] = tested on: human podocytes; assay: Determination of cholesterol content in podocytes exposed to patient sera; type: cell-based; conditions: DKD+ treated podocytes, 5 mM CD pretreatment 1 hour
# Description: Human podocyte culture. Human podocytes were cultured and differentiated as previously described and serum starved in 0.2% FBS prior to experiments. When patient sera were utilized, starved cells were exposed to 4% patient sera for 24 hours. For insulin treatment experiments, 100 nmol insulin was added to the culture medium for 15 minutes after exposure to patient sera. […] Determination of cholesterol content. Esterified cholesterol was determined as difference between total and free cholesterol using an enzymatic assay and normalized to cell protein content. The cellular content of lipid droplets was determined using Oil red O (ORO). Cells were fixed and permeabilized as described above, washed in PBS and in 60% isopropanol, followed by incubation in ORO (0.5% ORO in isopropanol, 1:3 diluted) for 15 min at room temperature and counterstaining with hematoxylin for 1 min. The fraction of ORO positive cells over two hundred consecutive cells was calculated by bright field microscopy.
# [9] = tested on: BTBR mice; assay: Safety of chronic subcutaneous CD in BTBR mice (blood analysis at sacrifice); type: in vivo; conditions: at sacrifice, 4,000 mg/kg s.c. three times per week for 5 months
# Description: as §1
# FIG. 3 is a table illustrating the safety of CD in 4-week old BTBR mice treated following subcutaneous administration of three weekly injections of hydroxypropyl-β-cyclodextrin (CD, 4,000 mg/kg body weight) for five months.
# [10] = tested on: human podocytes; assay: Human podocytes exposed to DKD+ patient sera: immunofluorescence staining (filipin, phospho-caveolin, F-actin, cell blebbing); type: cell-based
# Description: We used a previously established cell-based assay in which differentiated human podocytes are exposed to 4% patient sera for 24 hours to identify new pathways and targets in DKD. […] Excessive cholesterol deposition has indeed been described in glomeruli of rodent models of T1D and T2D and may contribute to DKD development and progression.
# Human podocyte culture. Human podocytes were cultured and differentiated as previously described and serum starved in 0.2% FBS prior to experiments. When patient sera were utilized, starved cells were exposed to 4% patient sera for 24 hours. For insulin treatment experiments, 100 nmol insulin was added to the culture medium for 15 minutes after exposure to patient sera.
# Immunofluorescence staining. […] Fluorescence detection was performed using Alexa Fluor secondary antibodies (Invitrogen). For cholesterol determination, filipin (Sigma) staining was performed as described. F-actin was visualized by Rhodamine Phalloidin (Invitrogen). Two hundred consecutive cells per condition were studied. Slides were prepared with DAPI enriched mounting media (Vectashield) and analyzed by confocal microscopy.
# [11] = tested on: human podocytes; assay: Western blotting and luminex (insulin stimulated AKT phosphorylation, MyD88) in podocytes exposed to patient sera; type: cell-based; conditions: DKD+ treated podocytes, 5 mM CD pretreatment 1 hour
# Description: Human podocyte culture. Human podocytes were cultured and differentiated as previously described and serum starved in 0.2% FBS prior to experiments. When patient sera were utilized, starved cells were exposed to 4% patient sera for 24 hours. For insulin treatment experiments, 100 nmol insulin was added to the culture medium for 15 minutes after exposure to patient sera. […] Western blotting and luminex. Cell lysate collection and Western blotting was performed as previously described. The following primary antibodies were used: rabbit-polyclonal-anti-MyD88 (Cell Signaling), rabbit-polyclonal-anti-phosphorylated ([…]) or anti-total-AKT (Cell Signaling), mouse-monoclonal-anti-rhoA (Santa Cruz), or mouse-monoclonal-anti-Gapdh (6C5, Calbiochem) antibody. Secondary Anti-mouse-IgG-HRP or and Anti-rabbit-IgG-HRP Conjugate (Promega) were used. Image acquisition was performed using the chemiluminescent imager SRX-101A (Konica Minolta medical imaging, USA) and band densitometry was analyzed using ImageJ software (NIH). Alternatively, phosphorylated/total AKT was quantified using luminex technology as previously reported.
# [12] = BTBR ob/ob mice, 4,000 mg/kg s.c. three times per week, after four months of treatment
# [13] = sera collected at sacrifice, BTBR ob/ob mice, 4,000 mg/kg s.c. three times per week
# [14] = serum at sacrifice, 4,000 mg/kg s.c. three times per week, 5 months
# [15] = podocytes pretreated 1 hour with 5 mM CD, exposed to 4% DKD+ sera 24 hours
compound,measurement,setting,value
"CC(O)COC[C@H]1O[C@@H]2O[C@H]3[C@H](O)[C@@H](O)[C@@H](O[C@H]4[C@H](O)[C@@H](O)[C@@H](O[C@H]5[C@H](O)[C@@H](O)[C@@H](O[C@H]6[C@H](O)[C@@H](O)[C@@H](O[C@H]7[C@H](O)[C@@H](O)[C@@H](O[C@H]8[C@H](O)[C@@H](O)[C@@H](O[C@H]1[C@H](O)[C@H]2O)O[C@@H]8COCC(C)O)O[C@@H]7COCC(C)O)O[C@@H]6COCC(C)O)O[C@@H]5COCC(C)O)O[C@@H]4COCC(C)O)O[C@@H]3COCC(C)O (stereo partly drawn) [CD, hydroxypropyl-β-cyclodextrin]",crossing from the bloodstream into the brain,[1],does not cross from the bloodstream into the brain
same,ABCA1 mRNA expression in the kidney cortex,[2],did not affect
same,glucose stimulated insulin release,[3],significant improvement in glucose stimulated insulin release
same,body weight,[4]; [12],reduction of body weight
same,random glycemia,[4]; [12],improvement of random glycemia
same,sensitivity to a single dose of short acting insulin,"[4]; BTBR ob/ob mice, insulin 4 mU/g intraperitoneal",did not affect the sensitivity
same,IPGTT (glucose tolerance),"[4]; CD treated homozygous mice vs homozygous controls, one week prior to sacrifice, glucose bolus 1.5 g/kg",improved
same,fasting plasma glucose,[4]; [13],significant improvement
same,fasting plasma insulin,[4]; [13],significant improvement
same,DKD+ induced apoptosis (cleaved Caspase 3),[5],prevented DKD+ induced apoptosis
same,ABCA1 expression in pancreata (mean fluorescence intensity),"[6]; heterozygous BTBR ob/+ mice, p<0.01",significantly increased ABCA1 expression
same,ABCA1 expression in pancreata (mean fluorescence intensity),"[6]; homozygous BTBR ob/ob mice, p<0.001",significantly increased ABCA1 expression
same,total cholesterol in the kidney cortex,"[7]; BTBR ob/ob mice, 4,000 mg/kg s.c. three times per week, 5 months",significant reduction of total cholesterol
same,albumin/creatinine ratios in morning spot urine,"[7]; BTBR ob/ob mice, 4,000 mg/kg s.c. three times per week, at 3 months, vs untreated, p<0.001",significant down-regulation
same,kidney weight,"[7]; BTBR ob/ob mice, 4,000 mg/kg s.c. three times per week, at sacrifice (5 months)",reduction of kidney weight
same,albumin/creatinine ratios in morning spot urine,"[7]; BTBR ob/ob mice, 4,000 mg/kg s.c. three times per week, until sacrifice (5 months)",decrease persisted until sacrifice
same,glomerular surface area,"[7]; PAS stained kidney sections, five months of treatment",without affecting the glomerular surface area
same,mesangial expansion,"[7]; PAS stained kidney sections, semiquantitative scale 0-4, five months of treatment",reduction of mesangial expansion
same,albumin excretion rates,"[7]; homozygous BTBR ob/ob mice, 4,000 mg/kg s.c. three times per week, up to 2 months after treatment initiation",no changes
same,Blood urea nitrogen (BUN),[7]; [14],not significantly affected
same,serum creatinine,[7]; [14],not significantly affected
same,accumulation of esterified cholesterol,[8],prevented the accumulation of total and esterified cholesterol
same,accumulation of total cholesterol,[8],prevented the accumulation of total and esterified cholesterol
same,alanine transaminase (ALT),[9],No abnormalities
same,aspartate aminotransferase (AST),[9],No abnormalities
same,gamma-glutamyltransferase (GGT),[9],No abnormalities
same,hemoglobin,[9],No abnormalities
same,cell blebbing,"[10]; human podocytes exposed to sera of patients with diabetic kidney disease, CD",prevents
same,localization of phosphorylated caveolin to focal adhesion sites,[10]; [15],preserved the localization of phosphorylated caveolin to focal adhesion sites
same,number of filipin-positive cells,[10]; [15],reduced the number of filipin-positive cells
same,podocyte injury observed in vitro after exposure to patient sera,[10]; pretreated 1 hour with 5 mM CD or 1 μM simvastatin,prevented podocyte injury
same,DKD+ induced MyD88 expression,[11],prevented
same,DKD+ induced insulin resistance (insulin stimulated AKT phosphorylation),[11]; 100 nmol insulin 15 minutes,prevented
